Holding throughout (type): cell-based
In assay [1] the test system is MSH3 Exon 14A_1 or Exon 14A_2. Put plainly: Splicing and RNA expression changes, poison exon 14A_1 or 14A_2 (FIG. 9). As to conditions: for total RNA: e.g., due to NMD. From the text:
(§1) Poison exons were identified in endogenous MSH3 genome by employing a proprietary bioinformatics pipeline screening for cryptic exons in combination with examining poison exon candidates that could be regulated by an agent described herein or by nonsense mediated decay (NMD) using cycloheximide. FIG. 6 and FIG. 7 illustrate identification of Exon 21A, but not Exon 21B, as a poison exon that could be regulated by the agent described herein. FIG. 8 and FIG. 9 illustrate mutations that can be introduced into the poison exon (Exon 21A and Exon 14A_1 or Exon 14A_2, respectively), where the mutated nucleotide bases (e.g., CAG) could further enhance the suppression of the MSH3 expression. Such mutations can be utilized as a method or a system for screening additional candidate agents. FIG. 8 illustrates splicing and RNA expression changes for targets regulated by an agent described herein. […] FIG. 8 also illustrates how mutating a poison exon (e.g., from ATA to CAG) increased percentage of splice inclusion of Exon 21A from 0.13 to 0.98. Such mutations can be useful for designing a method or a system for screening additional agents for modulating splicing in of poison exon into a mRNA (e.g., as shown in FIG. 10). FIG. 9 illustrates splicing and RNA expression changes for targets regulated by an agent described herein. […] FIG. 9 also illustrates how mutating the poison exon (e.g., from TGA to CAG) increased percentage of splice inclusion of Exon 14A_1 from 0.00 to 0.59. Such mutations can be useful for designing a method or a system for screening additional agents for modulating splicing in of poison exon into a mRNA (e.g., as shown in FIG. 10). […] FIG. 10A illustrates engineered minigene donor (e.g., by mutating endogenous trinucleotides to CAG as shown in FIG. 8 and FIG. 9) for driving expression of a luciferase reporter gene. FIG. 10B illustrates minigene PCR showing the presence of the poison exon comprising the CAG mutation. […] FIG. 10C illustrates increased luciferase signal generated by the presence of the minigene comprising the poison exon comprising the CAG mutation.

In a further assay the test system is MSH3 Exon 21A. Put plainly: Splicing and RNA expression changes, poison exon 21A (FIGS. 6-8). As to conditions: FIG. 8; for total RNA: e.g., due to NMD.
Excerpt: as §1

The test system of the next assay is MSH3. In words: QPCR assay for levels of MSH3 upon compound treatment in HEK293T or AD293 cells (fold-change of MSH3 transcript, EC50 of MSH3 downregulation; total MSH3 exons 13/14, exons 20/21; Table 8). Particulars: for mrna remaining at 1 µM / mrna remaining at 10 µM: Homo sapiens, fold-change of the MSH3 transcript, normalized to GAPDH; for mrna remaining at 1 µM: 1 μM compound; for mrna remaining at 10 µM: 10 μM compound. The procedure, abridged:
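HEK293T or AD293 cells were treated at 1 μM and […]; RNA-to-cDNA qPCR used TaqMan assays for total MSH3 (exons 13/14, exons 20/21) and poison-exon junctions exon 13/PE14A and exon 20/PE21A. Transcript levels were normalized to GAPDH.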

Structures are written as SMILES.

Turning to `C[C@@H]1C[C@@H]([C@H](O)CC2CC(=O)NC(=O)C2)C(=O)[C@@H](C)C1` [CHX, cycloheximide, reference compound], in assay [1], the “poison exon expression (Exon 14A_1 or Exon 14A_2)” value was “increased poison exon expression” and the “total RNA” value is recorded as “decreased total RNA”. Further, in the assay on MSH3 Exon 21A, the “poison exon expression (Exon 21A)” value is listed as “increased poison exon expression” and the “total RNA” value is “decreased total RNA”.

For `CN(c1ccc(N2Cc3cnc(-c4cnn(C)c4)cc3C2=O)nn1)C1CCNCC1` [Compound 1, 2-(6-(methyl(piperidin-4-yl)amino)pyridazin-3-yl)-6-(1-methyl-1H-pyrazol-4-yl)-2,3-dihydro-1H-pyrrolo[3,4-c]pyridin-1-one], in assay [1], the “poison exon expression (Exon 14A_1 or Exon 14A_2)” value was “increased poison exon expression” and the “total RNA” value is recorded as “decreased total RNA”. For the same molecule, in the assay on MSH3 Exon 21A, the “poison exon expression (Exon 21A)” value is on record as “increased poison exon expression” and the “total RNA” value is “decreased total RNA”.

Take `CN(c1ccc(N2Cc3c(Cl)cc(-c4nn(C)nc4Cl)cc3C2=O)nn1)[C@H]1C[C@]2(C)CC[C@](C)(C1)N2` [Compound 679, 4-chloro-6-(5-chloro-2-methyl-2H-1,2,3-triazol-4-yl)-2-(6-(((1R,3s,5S)-1,5-dimethyl-8-azabicyclo[3.2.1]octan-3-yl)(methyl)amino)pyridazin-3-yl)isoindolin-1-one]: in the assay with MSH3, the mrna remaining at 1 µM stood at 95% and the mrna remaining at 10 µM was found to be 34%.

Take `Cn1nc(Cl)c(-c2cc(C#N)c3c(c2)C(=O)N(c2ccc(OC4CC(C)(C)NC(C)(C)C4)nn2)C3)n1` [Compound 680, 6-(5-chloro-2-methyl-2H-1,2,3-triazol-4-yl)-1-oxo-2-(6-((2,2,6,6-tetramethylpiperidin-4-yl)oxy)pyridazin-3-yl)isoindoline-4-carbonitrile]: in the assay on MSH3, the mrna remaining at 1 µM was 94% and the mrna remaining at 10 µM amounted to 31%.

As for `Cc1nn(C)nc1-c1cc(C#N)c2c(c1)C(=O)N(c1ccc(O[C@H]3C[C@]4(C)CC[C@](C)(C3)N4)nn1)C2` [Compound 681, 6-(2,5-dimethyl-2H-1,2,3-triazol-4-yl)-2-(6-(((1R,3s,5S)-1,5-dimethyl-8-azabicyclo[3.2.1]octan-3-yl)oxy)pyridazin-3-yl)-1-oxoisoindoline-4-carbonitrile], in the assay with MSH3, the mrna remaining at 1 µM is 76% and the mrna remaining at 10 µM stood at 8%.

In the case of `CN(c1ccc(N2Cc3c(C#N)cc(-c4nn(C)nc4Cl)cc3C2=O)nn1)C1CC(C)(C)NC(C)(C)C1` [Compound 682, 6-(5-chloro-2-methyl-2H-1,2,3-triazol-4-yl)-2-(6-(methyl(2,2,6,6-tetramethylpiperidin-4-yl)amino)pyridazin-3-yl)-1-oxoisoindoline-4-carbonitrile], in the assay on MSH3, the mrna remaining at 1 µM is 77% and the mrna remaining at 10 µM came out at 17%.

With `COc1cc(-c2nn(C)nc2C)cc2c1CN(c1ccc(N(C)C3CC(C)(C)NC(C)(C)C3)nn1)C2=O` [Compound 683, 6-(2,5-dimethyl-2H-1,2,3-triazol-4-yl)-4-methoxy-2-(6-(methyl(2,2,6,6-tetramethylpiperidin-4-yl)amino)pyridazin-3-yl)isoindolin-1-one], in the assay on MSH3, the mrna remaining at 1 µM is 138% and the mrna remaining at 10 µM was 26%.

As to `COc1cc(-c2nn(C)nc2Cl)cc2c1CN(c1ccc(O[C@H]3C[C@]4(C)CC[C@](C)(C3)N4)nn1)C2=O` [Compound 684, 6-(5-chloro-2-methyl-2H-1,2,3-triazol-4-yl)-2-(6-(((1R,3s,5S)-1,5-dimethyl-8-azabicyclo[3.2.1]octan-3-yl)oxy)pyridazin-3-yl)-4-methoxyisoindolin-1-one], in the assay with MSH3, the mrna remaining at 1 µM worked out at 133% and the mrna remaining at 10 µM was found to be 24%.

As to `CN(c1ccc(N2Cc3c(C#N)cc(-c4nn(C)nc4Cl)cc3C2=O)nn1)C1C[C@]2(C)CC[C@](C)(C1)N2` (stereo partly drawn) [Compound 685, 6-(5-chloro-2-methyl-2H-1,2,3-triazol-4-yl)-2-(6-(((1R,5S)-1,5-dimethyl-8-azabicyclo[3.2.1]octan-3-yl)(methyl)amino)pyridazin-3-yl)-1-oxoisoindoline-4-carbonitrile], in the assay on MSH3, the mrna remaining at 1 µM is 24% and the mrna remaining at 10 µM was found to be 20%.

Regarding `COc1cc(-c2nn(C)nc2Cl)cc2c1CN(c1ccc(N(C)[C@H]3C[C@]4(C)CC[C@](C)(C3)N4)nn1)C2=O` [Compound 686, 6-(5-chloro-2-methyl-2H-1,2,3-triazol-4-yl)-2-(6-(((1R,3s,5S)-1,5-dimethyl-8-azabicyclo[3.2.1]octan-3-yl)(methyl)amino)pyridazin-3-yl)-4-methoxyisoindolin-1-one], in the assay on MSH3, the mrna remaining at 1 µM was found to be 109% and the mrna remaining at 10 µM was determined as 26%.

On to `COc1cc(-c2nn(C)nc2C)cc2c1CN(c1ccc(N(C)[C@H]3C[C@]4(C)CC[C@](C)(C3)N4)nn1)C2=O` [Compound 687, 6-(2,5-dimethyl-2H-1,2,3-triazol-4-yl)-2-(6-(((1R,3s,5S)-1,5-dimethyl-8-azabicyclo[3.2.1]octan-3-yl)(methyl)amino)pyridazin-3-yl)-4-methoxyisoindolin-1-one], for which, in the assay on MSH3, the mrna remaining at 1 µM came out at 110% and the mrna remaining at 10 µM was determined as 19%.

For the molecule `COc1cc(-c2nn(C)nc2C)cc2c1CN(c1ccc(OC3CC(C)(C)NC(C)(C)C3)nn1)C2=O` [Compound 688, 6-(2,5-dimethyl-2H-1,2,3-triazol-4-yl)-4-methoxy-2-(6-((2,2,6,6-tetramethylpiperidin-4-yl)oxy)pyridazin-3-yl)isoindolin-1-one], in the assay on MSH3, the mrna remaining at 1 µM came to 123% and the mrna remaining at 10 µM turned out to be 86%.

For the molecule `CN(c1ccc(N2Cc3c(O)cc(-c4nn(C)nc4Cl)cc3C2=O)nn1)[C@H]1C[C@]2(C)CC[C@](C)(C1)N2` [Compound 689, 6-(5-chloro-2-methyl-2H-1,2,3-triazol-4-yl)-2-(6-(((1R,3s,5S)-1,5-dimethyl-8-azabicyclo[3.2.1]octan-3-yl)(methyl)amino)pyridazin-3-yl)-4-hydroxyisoindolin-1-one], in the assay with MSH3, the mrna remaining at 1 µM turned out to be 88% and the mrna remaining at 10 µM was 27%.

As for `CN(c1ccc(N2Cc3c(C#N)cc(-c4nnn(C)n4)cc3C2=O)nn1)[C@H]1C[C@]2(C)CC[C@](C)(C1)N2` [Compound 693, 2-(6-(((1R,3s,5S)-1,5-dimethyl-8-azabicyclo[3.2.1]octan-3-yl)(methyl)amino)pyridazin-3-yl)-6-(2-methyl-2H-tetrazol-5-yl)-1-oxoisoindoline-4-carbonitrile], in the assay on MSH3, the mrna remaining at 1 µM stood at 94% and the mrna remaining at 10 µM was 40%.

The molecule `Cc1cn(-c2cc(C#N)c3c(c2)C(=O)N(c2ccc(N(C)[C@H]4C[C@]5(C)CC[C@](C)(C4)N5)nn2)C3)nn1` [Compound 695, 2-(6-(((1R,3s,5S)-1,5-dimethyl-8-azabicyclo[3.2.1]octan-3-yl)(methyl)amino)pyridazin-3-yl)-6-(4-methyl-1H-1,2,3-triazol-1-yl)-1-oxoisoindoline-4-carbonitrile] yielded a concentration for a half-maximal effect (EC50) with MSH3 (EC50 of MSH3 downregulation, XtalPi) of 11100 nM.

These data come from patent US20260315464A1, “COMPOSITIONS, METHODS, AND SYSTEMS FOR MODULATING SPLICING OF MSH3” (REVIR THERAPEUTICS, INC., priority 2023, published 2026).
